Test results published in ChEMBL document CHEMBL3352146, “Cytotoxic aaptamine derivatives from the South China Sea sponge Aaptos aaptos” (J Nat Prod, 2014).

Assays:
[1] = Cytotoxicity against human HL60 cells after 48 hrs by trypan blue exclusion method; type: functional, cell-based; conditions: HL-60, 48 h
K562 = test: Cytotoxicity against human K562 cells after 48 hrs by trypan blue exclusion method; type: functional, cell-based; conditions: K562, 48 h
KB = test: Cytotoxicity against human KB cells after 72 hrs by methylene blue assay
MCF7 = test: Cytotoxicity against human MCF7 cells after 72 hrs by methylene blue assay; conditions: MCF7, 72 h
HepG2 = test: Cytotoxicity against human HepG2 cells after 72 hrs by methylene blue assay; conditions: HepG2, 72 h
HT-29 = test: Cytotoxicity against human HT-29 cells after 72 hrs by methylene blue assay; conditions: HT-29, 72 h

Structure (SMILES)	IC50 [1]	IC50 (K562)	IC50 (KB)	IC50 (MCF7)	IC50 (HepG2)	IC50 (HT-29)
COc1cc2ccn3c(CC(C)C)nc4c(=O)[nH]c(c1OC)c2c43	> 10 µg/mL	> 10 µg/mL	> 10 µg/mL	> 10 µg/mL	> 10 µg/mL	> 10 µg/mL
CCOC1=Nc2c(N)c(OC)cc3ccnc(c23)C1=O	110 nM	220 nM	660 nM	1200 nM	600 nM	6600 nM
COC1=Cc2ccnc3c(NCC(C)C)cnc(c23)C1=O	280 nM	460 nM	1100 nM	2300 nM	1000 nM	8500 nM
COC1=Cc2ccnc3c(NCCC(C)C)cnc(c23)C1=O	30 nM	90 nM	110 nM	440 nM	170 nM	1800 nM
COC1=Cc2ccnc3c(NCCc4ccccc4)cnc(c23)C1=O	30 nM	90 nM	120 nM	400 nM	200 nM	2200 nM
COC1=Cc2ccnc3c4c(nc(c23)C1=O)CCCN4	> 10 µg/mL	> 10 µg/mL	> 10 µg/mL	> 10 µg/mL	> 10 µg/mL	> 10 µg/mL
CCC(C)c1nc2c(=O)[nH]c3c(OC)c(OC)cc4ccn1c2c43 (configuration not stated)	> 10 µg/mL	> 10 µg/mL	> 10 µg/mL	> 10 µg/mL	> 10 µg/mL	> 10 µg/mL
COc1cc2ccn3c(C(C)C)nc4c(=O)[nH]c(c1OC)c2c43	> 10 µg/mL	> 10 µg/mL	> 10 µg/mL	> 10 µg/mL	> 10 µg/mL	> 10 µg/mL
CCOc1nc2c(=O)[nH]c3c(OC)c(OC)cc4ccn1c2c43	> 10 µg/mL	> 10 µg/mL	> 10 µg/mL	> 10 µg/mL	> 10 µg/mL	> 10 µg/mL
CCC(C)CNc1cnc2c3c(ccnc13)C=C(OC)C2=O (configuration not stated)	> 10 µg/mL	> 10 µg/mL	> 10 µg/mL	> 10 µg/mL	> 10 µg/mL	> 10 µg/mL
CCOC(=O)CCCNc1cnc2c3c(ccnc13)C=C(OC)C2=O	> 10 µg/mL	> 10 µg/mL	> 10 µg/mL	> 10 µg/mL	> 10 µg/mL	> 10 µg/mL
CNc1cnc2c3c(ccnc13)C=C(OC)C2=O	> 10 µg/mL	> 10 µg/mL	> 10 µg/mL	> 10 µg/mL	> 10 µg/mL	> 10 µg/mL
CC(=O)O[C@H]1C(=O)[C@@]2(C)[C@H]([C@H](OC(=O)c3ccccc3)[C@]3(O)C[C@H](OC(=O)[C@H](O)[C@@H](NC(=O)c4ccccc4)c4ccccc4)C(C)=C1C3(C)C)[C@]1(OC(C)=O)CO[C@@H]1C[C@@H]2O [PACLITAXEL]	1.5 nM	2.4 nM	–	3.2 nM	2.7 nM	3.5 nM
